This passage reports EC50 results from patent US8450522B2, “Conformationally constrained carboxylic acid derivatives useful for treating metabolic disorders” (Amgen Inc., priority 2008, dated 2013).

Sequence of GPR40 (O14842 whole entry): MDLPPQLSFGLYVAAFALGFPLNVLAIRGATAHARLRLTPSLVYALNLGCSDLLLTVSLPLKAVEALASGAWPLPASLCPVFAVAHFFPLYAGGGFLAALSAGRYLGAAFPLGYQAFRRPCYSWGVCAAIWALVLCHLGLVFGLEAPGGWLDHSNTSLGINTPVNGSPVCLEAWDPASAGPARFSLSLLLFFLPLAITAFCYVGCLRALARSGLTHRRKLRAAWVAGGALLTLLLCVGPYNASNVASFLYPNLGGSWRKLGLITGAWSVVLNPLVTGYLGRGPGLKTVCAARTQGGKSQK

For this experiment, the target named is GPR40 (Homo sapiens, UniProt O14842). In words: Cell-based aequorin assay (CHO cells stably transfected with GPR40 and aequorin). Also noted: expressed in transfected cells. The following applies: activation of human GPR40, CHO cells, 0.01% HSA. Here is the method:
Briefly, the Aequorin assays were performed on doubly stable CHO cells expressing GPR40 and Aequorin DNA. […] The luminescence was recorded over a period of 20 seconds with a Microlumat luminometer (Berthold).
Cell-based aequorin assays were employed to characterize the modulatory activity of compounds on the GPR40 signaling pathway. In an exemplary assay, CHO cells were stably transfected with both GPR40 and Aequorin (Euroscreen). Cells were detached from the tissue culture dish with 2 mL of trypsin (0.25% (w/v)). Trypsinization was halted with 28 mL of Hanks Buffered Salt Solution containing 20 mM Hepes (H/HBSS) and 0.01% fatty acid-free human serum albumin (HSA). Coelantrazine is added to 1 ug/mL, and the cells were incubated for 2 hours at room temperature. Compounds were dissolved in DMSO for preparation of 10 mM stock solutions. Compounds were diluted in H/HBSS containing 0.01% HSA. Serial dilutions of the test compounds were prepared to determine dose response.
Aequorin luminescence measurements were made using an EG&G Berthold 96-well luminometer, and the response was measured over a 20 second interval after cells and compounds were mixed. The maximum relative light units was plotted to determine dose response. The EC50 (effective concentration to reach 50% maximal response) was determined from the dose response plot.
The EC50 is the concentration giving half of the maximal effect. A low value points to a more potent agent. In the case of `COc1ccc(F)c(-c2ccc(COc3ccc4c(c3)[C@H](CC(=O)O)C4)cc2C(C)(C)C)c1` (single isomer, unassigned) [Example 3, (R)-2-(5-(3-t-Butyl-4-(2-fluoro-5-methoxyphenyl)benzyloxy)-1,2-dihydrocyclobutabenzen-1-yl)acetic acid or (S)-2-(5-(3-t-butyl-4-(2-fluoro-5-methoxyphenyl)benzyloxy)-1,2-dihydrocyclobutabenzen-1-yl)acetic acid], the EC50 fell in the range of 1 to 10 µM.
As for `COc1ccc(F)c(-c2ccc(COc3ccc4c(c3)[C@@H](CC(=O)O)C4)cc2C(C)(C)C)c1` (single isomer, unassigned) [Example 4, ((7R)-4-(((2-(1,1-Dimethylethyl)-2′-fluoro-5′-(methyloxy)-1,1′-biphenyl-4-yl)methyl)oxy)bicyclo[4.2.0]octa-1,3,5-trien-7-yl)acetic acid or ((7R)-4-(((2-(1,1-dimethylethyl)-2′-fluoro-5′-(methyloxy)-1,1′-biphenyl-4-yl)methyl)oxy)bicyclo[4.2.0]octa-1,3,5-trien-7-yl)acetic acid], the EC50 was more than 10 µM.
Then `COc1ccc(F)c(-c2ccc(COc3ccc4c(c3)CC[C@@H]4CC(=O)O)cc2C(C)(C)C)c1` (single isomer, unassigned) [Example 5, (R)-Methyl 2-(5-(3-t-butyl-4-(2-fluoro-5-methoxyphenyl)benzyloxy)-2,3-dihydro-1H-inden-1-yl)acetic acid or (S)-methyl 2-(5-(3-t-butyl-4-(2-fluoro-5-methoxyphenyl)benzyloxy)-2,3-dihydro-1H-inden-1-yl)acetic acid], with 1 to 10 µM; and `COc1ccc(F)c(-c2ccc(COc3ccc4c(c3)[C@@H](CC(=O)O)C(C)(C)C4)cc2C(C)(C)C)c1` (single isomer, unassigned) [Example 8, ((1S)-6-(((2-(1,1-Dimethylethyl)-2′-fluoro-5′-(methyloxy)-1,1′-biphenyl-4-yl)methyl)oxy)-2,2-dimethyl-2,3-dihydro-1H-inden-1-yl)acetic acid or ((1R)-6-(((2-(1,1-dimethylethyl)-2′-fluoro-5′-(methyloxy)-1,1′-biphenyl-4-yl)methyl)oxy)-2,2-dimethyl-2,3-dihydro-1H-inden-1-yl)acetic acid], with 1 to 10 µM; and `COc1ccc(F)c(-c2ccc(COc3ccc4c(c3)[C@@H](CC(=O)O)C(C)(C)C4)cc2C2=CCCC2(C)C)c1` (single isomer, unassigned) [Example 9, ((1S)-6-(((2-(5,5-Dimethyl-1-cyclopenten-1-yl)-2′-fluoro-5′-(methyloxy)-1,1′-biphenyl-4-yl)methyl)oxy)-2,2-dimethyl-2,3-dihydro-1H-inden-1-yl)acetic acid or ((1R)-6-(((2-(5,5-dimethyl-1-cyclopenten-1-yl)-2′-fluoro-5′-(methyloxy)-1,1′-biphenyl-4-yl)methyl)oxy)-2,2-dimethyl-2,3-dihydro-1H-inden-1-yl)acetic acid], with 0.1 to 1 µM.
To `COc1ccc(F)c(-c2ccc(COc3ccc4c(c3)[C@H](CC(=O)O)C(C)(C)C4)cc2C(C)(C)C)c1` (single isomer, unassigned) [Example 10, ((1R)-6-(((2-(1,1-Dimethylethyl)-2′-fluoro-5′-(methyloxy)-1,1′-biphenyl-4-yl)methyl)oxy)-2,2-dimethyl-2,3-dihydro-1H-inden-1-yl)acetic acid or ((1S)-6-(((2-(1,1-dimethylethyl)-2′-fluoro-5′-(methyloxy)-1,1′-biphenyl-4-yl)methyl)oxy)-2,2-dimethyl-2,3-dihydro-1H-inden-1-yl)acetic acid] belongs 1 to 10 µM.
To `COc1ccc(F)c(-c2ccc(COc3ccc4c(c3)[C@@H](C(C)(C)C(=O)O)CC4)cc2C2=CCCC2(C)C)c1` (single isomer, unassigned) [Example 11, 2-((1S)-6-(((2-(5,5-Dimethyl-1-cyclopenten-1-yl)-2′-fluoro-5′-(methyloxy)-1,1′-biphenyl-4-yl)methyl)oxy)-2,3-dihydro-1H-inden-1-yl)-2-methylpropanoic acid or 2-((1R)-6-(((2-(5,5-dimethyl-1-cyclopenten-1-yl)-2′-fluoro-5′-(methyloxy)-1,1′-biphenyl-4-yl)methyl)oxy)-2,3-dihydro-1H-inden-1-yl)-2-methylpropanoic acid] belongs 0.1 to 1 µM; to `COc1ccc(F)c(-c2ccc(COc3ccc4c(c3)[C@@H](C(C)(C)C(=O)O)CC4)cc2C(C)(C)C)c1` (single isomer, unassigned) [Example 12, 2-((1S)-6-(((2-(1,1-Dimethylethyl)-2′-fluoro-5′-(methyloxy)-1,1′-biphenyl-4-yl)methyl)oxy)-2,3-dihydro-1H-inden-1-yl)-2-methylpropanoic acid or 2-((1R)-6-(((2-(1,1-Dimethylethyl)-2′-fluoro-5′-(methyloxy)-1,1′-biphenyl-4-yl)methyl)oxy)-2,3-dihydro-1H-inden-1-yl)-2-methylpropanoic acid], 0.1 to 1 µM; to `COc1cccc(-c2ccc(COc3ccc4c(c3)[C@@H](CC(=O)O)CC4)cc2C(C)(C)C)c1` (single isomer, unassigned) [Example 25, ((1R)-6-(((2-(1,1-Dimethylethyl)-3′-(methyloxy)-1,1′-biphenyl-4-yl)methyl)oxy)-2,3-dihydro-1H-inden-1-yl)acetic acid or ((1S)-6-(((2-(1,1-dimethylethyl)-3′-(methyloxy)-1,1′-biphenyl-4-yl)methyl)oxy)-2,3-dihydro-1H-inden-1-yl)acetic acid], 1 to 10 µM.
Molecule `COc1cccc(-c2ccc(COc3ccc4c(c3)[C@@H]([C@@H](C)C(=O)O)CC4)cc2C(C)(C)C)c1` (single isomer, unassigned) [Example 26, 2-((1R)-6-(((2-(1,1-dimethylethyl)-3′-(methyloxy)-1,1′-biphenyl-4-yl)methyl)-oxy)-2,3-dihydro-1H-inden-1-yl)propanoic acid or stereoisomer thereof] displayed a half-maximal effective concentration (EC50) of 1 to 10 µM.
To `CCC(C)(C)[C@H](OC)c1cc(COc2ccc3c(c2)[C@@H]([C@@H](C)C(=O)O)CC3)ccc1-c1cc(OC)ccc1F` (single isomer, unassigned) [Example 27, 2-((1R)-6-(((2-((1R)-2,2-Dimethyl-1-(methyloxy)butyl)-2′-fluoro-5′-(methyloxy)-1,1′-biphenyl-4-yl)methyl)oxy)-2,3-dihydro-1H-inden-1-yl)propanoic acid (27) or stereoisomer thereof] belongs 1 to 10 µM.
To `C=CC(C)(C)[C@H](O)c1cc(COc2ccc3c(c2)[C@@H]([C@@H](C)C(=O)O)CC3)ccc1-c1cc(OC)ccc1F` (single isomer, unassigned) [Example 28, 2-((1R)-6-(((2′-Fluoro-2-((1S)-1-hydroxy-2,2-dimethyl-3-butenyl)-5′-(methyloxy)-1,1′-biphenyl-4-yl)methyl)oxy)-2,3-dihydro-1H-inden-1-yl)propanoic acid or stereoisomer thereof] belongs 1 to 10 µM; to `COc1ccc(F)c(-c2ccc(COc3ccc4c(c3)C[C@@H]4CC(=O)O)cc2C(C)(C)C)c1` (single isomer, unassigned) [Example 29, ((7S)-3-((2′-Fluoro-5′-methoxy-2-(2-methyl-2-propanyl)-4-biphenylyl)methoxy)bicycle[4.2.0]octa-1,3,5-trien-7-yl)acetic acid or ((7R)-3-((2′-fluoro-5′-methoxy-2-(2-methyl-2-propanyl)-4-biphenylyl)methoxy)bicycle[4.2.0]octa-1,3,5-trien-7-yl)acetic acid], 1 to 10 µM.
Then `COc1ccc(F)c(-c2ccc(COc3ccc4c(c3)C[C@H]4CC(=O)O)cc2C(C)(C)C)c1` (single isomer, unassigned) [Example 30, ((7S)-3-((2′-Fluoro-5′-methoxy-2-(2-methyl-2-propanyl)-4-biphenylyl)methoxy)bicycle[4.2.0]octa-1,3,5-trien-7-yl)acetic acid or ((7R)-3-((2′-fluoro-5′-methoxy-2-(2-methyl-2-propanyl)-4-biphenylyl)methoxy)bicycle[4.2.0]octa-1,3,5-trien-7-yl)acetic acid], with 1 to 10 µM.
Molecule `COc1ccc(F)c(-c2ccc(COc3ccc4c(c3)CC[C@@H]4CC(=O)O)cc2C(C)(C)C)c1` (single isomer, unassigned) [Example 31, ((1S)-5-((2′-Fluoro-5′-methoxy-2-(2-methyl-2-propanyl)-4-biphenylyl)methoxy)-2,3-dihydro-1H-inden-1-yl)acetic acid or ((1R)-5-((2′-fluoro-5′-methoxy-2-(2-methyl-2-propanyl)-4-biphenylyl)methoxy)-2,3-dihydro-1H-inden-1-yl)acetic acid] returned an EC50 of 1 to 10 µM.
For the molecule `COc1ccc(F)c(-c2ccc(COc3ccc4c(c3)CC[C@H]4CC(=O)O)cc2C(C)(C)C)c1` (single isomer, unassigned) [Example 32, ((1S)-5-((2′-Fluoro-5′-methoxy-2-(2-methyl-2-propanyl)-4-biphenylyl)methoxy)-2,3-dihydro-1H-inden-1-yl)acetic acid or ((1R)-5-((2′-fluoro-5′-methoxy-2-(2-methyl-2-propanyl)-4-biphenylyl)methoxy)-2,3-dihydro-1H-inden-1-yl)acetic acid], the concentration giving a half-maximal response (EC50) fell in the range of 1 to 10 µM.
To `COc1cc(-c2ccc(COc3ccc4c(c3)[C@H](CC(=O)O)CCC4)cc2[C@H]2CCCC2(C)C)c(F)cn1` (single isomer, unassigned) [Example 47] belongs 1 to 10 µM.
